# Data published in the supplement of paper PMC11061612.
# Columns and labels:
# Capivasertib = compound: C1CN(CCC1(C(=O)N[C@@H](CCO)C2=CC=C(C=C2)Cl)N)C3=NC=NC4=C3C=CN4 [Capivasertib]; settings: max 10 µM
# Procedure, shortened: (§1)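 Cancer cell lines were plated in 1536-well plates in 7.5 μl of DMEM/F12 or RPMI with 10% FBS and kept 24 hours at 37°C and 5% CO2 before 72 hours of dosing, with final DMSO typically 0.2%. CellTiter-Glo 2.0 luminescence measured viability, scaled between blank-well and DMSO-well means. Dose responses were fitted to a two-parameter logistic curve with a non-linear mixed effects model. This fit gives the single-agent IC50.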
# AZD1775 = compound: C=CCn1c(=O)c2cnc(Nc3ccc(N4CCN(C)CC4)cc3)nc2n1-c1cccc(C(C)(C)O)n1 [AZD1775]; settings: max 3 µM
# Procedure, shortened: as §1
# Trametinib = compound: CC(=O)Nc1cccc(-n2c(=O)n(C3CC3)c(=O)c3c(Nc4ccc(I)cc4F)n(C)c(=O)c(C)c32)c1 [Trametinib]; settings: max 1 µM
# Procedure, shortened: as §1
# Palbociclib = compound: CC(=O)c1c(C)c2cnc(Nc3ccc(N4CCNCC4)cn3)nc2n(C2CCCC2)c1=O [Palbociclib]; settings: max 10 µM
# Procedure, shortened: as §1
# AZD1390 = compound: CC(C)n1c(=O)n(C)c2cnc3cc(F)c(-c4ccc(OCCCN5CCCCC5)nc4)cc3c21 [AZD1390]; settings: max 0.3 µM
# Procedure, shortened: as §1
# Venetoclax = compound: CC1(C)CCC(CN2CCN(c3ccc(C(=O)NS(=O)(=O)c4ccc(NCC5CCOCC5)c([N+](=O)[O-])c4)c(Oc4cnc5[nH]ccc5c4)c3)CC2)=C(c2ccc(Cl)cc2)C1 [Venetoclax]; settings: max 1 µM
# Procedure, shortened: as §1
# Dasatinib = compound: CC1=C(C(=CC=C1)Cl)NC(=O)C2=CN=C(S2)NC3=CC(=NC(=N3)C)N4CCN(CC4)CCO [Dasatinib]; settings: max 2 µM
# Procedure, shortened: as §1
# SG3199 = compound: CC1=CN2[C@@H](C1)C=NC3=CC(=C(C=C3C2=O)OC)OCCCCCOC4=C(C=C5C(=C4)N=C[C@@H]6CC(=CN6C5=O)C)OC [SG3199]; settings: max 0.001 µM
# Procedure, shortened: as §1
# AZD2811 = compound: CCN(CCO)CCCOc1ccc2c(Nc3cc(CC(=O)Nc4cccc(F)c4)[nH]n3)ncnc2c1 [AZD2811]; settings: max 1 µM
# Procedure, shortened: as §1
# SN-38 = compound: CCc1c2c(nc3ccc(O)cc13)-c1cc3c(c(=O)n1C2)COC(=O)[C@]3(O)CC [SN-38]; settings: max 0.3 µM
# Procedure, shortened: as §1
# AZD0156 = compound: CN(C)CCCOc1ccc(-c2ccc3ncc4c(c3c2)n(C2CCOCC2)c(=O)n4C)cn1 [AZD0156]; settings: max 3 µM
# Procedure, shortened: as §1
# AZD4320 = compound: CN(CC[C@H](CSC1=CC=CC=C1)NC2=C(C=C(C=C2)S(=O)(=O)NC(=O)C3=CC=C(C=C3)N4CCC(CC4)[C@H](C5=CC=CC=C5C6=CC=C(C=C6)Cl)O)S(=O)(=O)C(F)(F)F)CCO [AZD4320]; settings: max 1 µM
# Procedure, shortened: as §1
# Alisertib = compound: COc1cc(Nc2ncc3c(n2)-c2ccc(Cl)cc2C(c2c(F)cccc2OC)=NC3)ccc1C(=O)O [Alisertib]; settings: max 10 µM
# Procedure, shortened: as §1
# Gefitinib = compound: COc1cc2ncnc(Nc3ccc(F)c(Cl)c3)c2cc1OCCCN1CCOCC1 [Gefitinib]; settings: max 10 µM
# Procedure, shortened: as §1
# Prexasertib = compound: COc1cccc(OCCCN)c1-c1cc(Nc2cnc(C#N)cn2)n[nH]1 [Prexasertib]; settings: max 1 µM
# Procedure, shortened: as §1
# Doxorubicin = compound: COc1cccc2c1C(=O)c1c(O)c3c(c(O)c1C2=O)C[C@@](O)(C(=O)CO)C[C@@H]3O[C@H]1C[C@H](N)[C@H](O)[C@H](C)O1 [Doxorubicin]; settings: max 1 µM
# Procedure, shortened: as §1
# AZD5153 = compound: COc1nnc2ccc(N3CCC(c4ccc(OCCN5CCN(C)C(=O)[C@H]5C)cc4)CC3)nn12 [AZD5153]; settings: max 1 µM
# Procedure, shortened: as §1
# Lapatinib = compound: CS(=O)(=O)CCNCc1ccc(-c2ccc3ncnc(Nc4ccc(OCc5cccc(F)c5)c(Cl)c4)c3c2)o1 [Lapatinib]; settings: max 10 µM
# Procedure, shortened: as §1
# AZD8186 = compound: C[C@@H](Nc1cc(F)cc(F)c1)c1cc(C(=O)N(C)C)cc2c(=O)cc(N3CCOCC3)oc12 [AZD8186]; settings: max 3 µM
# Procedure, shortened: as §1
# Crizotinib = compound: C[C@@H](Oc1cc(-c2cnn(C3CCNCC3)c2)cnc1N)c1c(Cl)ccc(F)c1Cl [Crizotinib]; settings: max 10 µM
# Procedure, shortened: as §1
# Savolitinib = compound: C[C@@H](c1ccc2nccn2c1)n1nnc2ncc(-c3cnn(C)c3)nc21 [Savolitinib]; settings: max 1 µM
# Procedure, shortened: as §1
# AZD6738 = compound: C[C@@H]1COCCN1C2=NC(=NC(=C2)C3(CC3)[S@](=N)(=O)C)C4=C5C=CNC5=NC=C4 [AZD6738]; settings: max 10 µM
# Procedure, shortened: as §1
# AZD5991 = compound: Cc1c2c(nn1C)CSCc1cc(n(C)n1)CSc1cc(c3ccccc3c1)OCCCc1c(C(=O)O)n(C)c3c-2c(Cl)ccc13 [AZD5991]; settings: max 1 µM
# Procedure, shortened: as §1
# AZD7648 = compound: Cc1cc2ncnn2cc1Nc1ncc2c(n1)n(C1CCOCC1)c(=O)n2C [AZD7648]; settings: max 10 µM
# Procedure, shortened: as §1
# Taselisib = compound: Cc1nc(-c2cn3c(n2)-c2ccc(-c4cnn(C(C)(C)C(N)=O)c4)cc2OCC3)n(C(C)C)n1 [Taselisib]; settings: max 10 µM
# Procedure, shortened: as §1
# Selumetinib = compound: Cn1cnc2c(F)c(Nc3ccc(Br)cc3Cl)c(C(=O)NOCCO)cc21 [Selumetinib]; settings: max 10 µM
# Procedure, shortened: as §1
# Olaparib = compound: O=C(c1cc(Cc2n[nH]c(=O)c3ccccc23)ccc1F)N1CCN(C(=O)C2CC2)CC1 [Olaparib]; settings: max 10 µM
# Procedure, shortened: as §1
Cell Line,"IC50, cell viability 72 h (Capivasertib) [nM]","IC50, cell viability 72 h (AZD1775) [nM]","IC50, cell viability 72 h (Trametinib) [nM]","IC50, cell viability 72 h (Palbociclib) [nM]","IC50, cell viability 72 h (AZD1390) [nM]","IC50, cell viability 72 h (Venetoclax) [nM]","IC50, cell viability 72 h (Dasatinib) [nM]","IC50, cell viability 72 h (SG3199) [nM]","IC50, cell viability 72 h (AZD2811) [nM]","IC50, cell viability 72 h (SN-38) [nM]","IC50, cell viability 72 h (AZD0156) [nM]","IC50, cell viability 72 h (AZD4320) [nM]","IC50, cell viability 72 h (Alisertib) [nM]","IC50, cell viability 72 h (Gefitinib) [nM]","IC50, cell viability 72 h (Prexasertib) [nM]","IC50, cell viability 72 h (Doxorubicin) [nM]","IC50, cell viability 72 h (AZD5153) [nM]","IC50, cell viability 72 h (Lapatinib) [nM]","IC50, cell viability 72 h (AZD8186) [nM]","IC50, cell viability 72 h (Crizotinib) [nM]","IC50, cell viability 72 h (Savolitinib) [nM]","IC50, cell viability 72 h (AZD6738) [nM]","IC50, cell viability 72 h (AZD5991) [nM]","IC50, cell viability 72 h (AZD7648) [nM]","IC50, cell viability 72 h (Taselisib) [nM]","IC50, cell viability 72 h (Selumetinib) [nM]","IC50, cell viability 72 h (Olaparib) [nM]"
NCI-H2722 (Mesothelioma),> 10000,> 3000,> 1000,> 10000,> 300,> 1000,> 2000,> 1,> 1000,> 300,> 3000,> 1000,> 10000,> 10000,> 1000,> 1000,> 1000,> 10000,> 3000,> 10000,> 1000,> 10000,> 1000,> 10000,> 10000,> 10000,> 10000
NUGC-4 (Gastric Carcinoma),> 10000,2530,> 1000,> 10000,> 300,> 1000,> 2000,> 1,> 1000,> 300,> 3000,> 1000,> 10000,> 10000,948,> 1000,582,> 10000,> 3000,> 10000,> 1000,> 10000,> 1000,> 10000,> 10000,5680,> 10000
OV-56 (Ovarian Carcinoma),> 10000,> 3000,> 1000,> 10000,> 300,> 1000,> 2000,> 1,> 1000,25,> 3000,> 1000,> 10000,> 10000,42.2,> 1000,> 1000,> 10000,> 3000,> 10000,> 1000,> 10000,> 1000,> 10000,> 10000,> 10000,> 10000
SW1573 (Lung Adenocarcinoma),> 10000,> 3000,> 1000,> 10000,> 300,> 1000,> 2000,> 1,> 1000,52.2,> 3000,> 1000,> 10000,> 10000,> 1000,> 1000,> 1000,> 10000,> 3000,> 10000,> 1000,> 10000,> 1000,> 10000,> 10000,> 10000,> 10000
